Test results reported in article PMC3652757, “Enhancement of fermentable sugar yields by α-xylosidase supplementation of commercial cellulases” (Biotechnology for Biofuels, 2013).

Target: T1, AxlA (Aspergillus niger, UniProt A2QTU5)
T1 sequence (A2QTU5 19-736): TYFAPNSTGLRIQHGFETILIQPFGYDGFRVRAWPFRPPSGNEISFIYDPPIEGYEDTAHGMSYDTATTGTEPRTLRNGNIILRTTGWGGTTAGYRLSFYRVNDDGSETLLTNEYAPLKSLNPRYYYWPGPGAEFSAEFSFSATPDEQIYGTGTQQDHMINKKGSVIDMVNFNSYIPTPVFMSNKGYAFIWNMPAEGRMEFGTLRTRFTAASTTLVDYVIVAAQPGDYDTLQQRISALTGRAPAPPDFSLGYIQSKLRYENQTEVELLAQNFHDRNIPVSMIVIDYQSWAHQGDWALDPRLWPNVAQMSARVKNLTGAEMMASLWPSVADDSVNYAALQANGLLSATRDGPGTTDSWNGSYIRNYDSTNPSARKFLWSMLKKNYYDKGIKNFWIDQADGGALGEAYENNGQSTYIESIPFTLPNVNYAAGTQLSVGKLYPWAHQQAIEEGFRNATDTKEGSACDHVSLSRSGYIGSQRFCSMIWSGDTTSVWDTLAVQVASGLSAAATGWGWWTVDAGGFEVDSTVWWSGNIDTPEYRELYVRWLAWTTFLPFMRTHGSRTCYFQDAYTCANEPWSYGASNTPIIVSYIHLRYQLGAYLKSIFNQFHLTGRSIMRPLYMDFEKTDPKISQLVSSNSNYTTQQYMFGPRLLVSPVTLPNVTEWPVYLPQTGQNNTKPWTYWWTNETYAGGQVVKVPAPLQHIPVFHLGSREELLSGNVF
Assay: pNPαX hydrolysis competition, nonlinear curve fitting
Type: biochemical
Details: substrate p-nitrophenyl-α-xyloside 0-20 mM; reaction product

- Ki: 13.7 mM
SMILES: OC1OC[C@@H](O)[C@H](O)[C@H]1O (stereo partly shown) [Xyl]
